Source: PubChem BioAssay (NCI)
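Cultured in 96-well plates, cells were exposed to test compound for 48 hours across five concentrations. At the GI50, growth is halved. At the TGI there is no net growth.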

tested on: ACHN renal; test: growth of human tumour cells (NCI), 48 h

| Compound | TGI [µM] | GI50 [µM] |
| --- | --- | --- |
| CC(C)N(C(=O)C12C3C4C5(C#N)C3C1(C#N)C5C42I)C(C)C (stereo not drawn) | > 100 |  |
| COc1cc2nc(-c3ccc(Cl)cc3)cc(OCCCN3CCCCC3)c2cc1OC | > 100 | 2.45 |
| COc1ccc2c3c([nH]c2c1[N+](=O)[O-])C(C)=NCC3 | > 100 |  |
| CC(C)(C)CC(C)(C)c1cc2c(O)c(c1)Cc1cc(C(C)(C)CC(C)(C)C)cc(c1O)Cc1cc(C(C)(C)CC(C)(C)C)cc(c1O)Cc1cc(C(C)(C)CC(C)(C)C)cc(c1O)C2 | > 100 |  |
| Cc1cc([N+](=O)[O-])ccc1Nc1cccc(Cl)c1C | 41.4 |  |
| O=C(O)C1C2C=CC(O2)C1C(=O)NCc1ccccn1 (stereo not drawn) | > 100 |  |
| CC1=C(C(=O)Nc2ccccc2)C(c2ccccc2)C(C(=O)Nc2ccccc2)=C(C)N1 | > 100 |  |
| O=C(OC(CNc1cc(=O)n(Cc2ccccc2)c(=O)n1Cc1ccccc1)CN1CCCC1)c1ccccc1 (stereo not drawn) | > 100 | > 100 |
| Cc1nn(-c2ccccc2)c2nc(N3CCOCC3)nnc12 | > 100 |  |
| CCOC(=O)CCCn1c(SC)nc2[nH]cc(-c3ccccc3)c2c1=O | 43.2 | 8.09 |
| CCN(CC)CCOc1ccc(-c2nc3cc(Cl)ccc3s2)cc1 | 2.94 | 1.58 |
| CNC(=O)N(C)N=NCCCl | > 100 |  |
| CCOc1ccccc1C=C1c2ccccc2C(=O)c2ccccc21 | > 100 |  |
| O=C(CCn1[nH]c(=O)c(Cl)c(Cl)c1=O)NO | > 100 |  |
| CCN1CCN(C(c2ccc(C(F)(F)F)cc2)c2ccc3cccnc3c2O)CC1 (stereo not drawn) | 11.2 | 3.04 |
| [N-]=[N+]=NC12CC3C4CC5CC3C(C1)C(C5)C4C2 | > 100 |  |
| CN(C)c1nc2ccccc2[nH]1 | > 100 |  |
| NNC(=S)N/N=C(\CC1OC(=O)c2ccccc21)c1ccccc1O (stereo not drawn) | > 100 |  |

| Compound | TGI [µM] | GI50 [µM] |
| --- | --- | --- |
| COC(=O)C1=C(O)c2cc(OC)c(OC)cc2C(c2ccc(OC)c(OC)c2)C1 (stereo not drawn) | > 100 |  |
| COC1(OC)CC2C(=O)N(Cc3ccccc3)C1C(S(=O)(=O)c1ccccc1)C2S(=O)(=O)c1ccccc1 (stereo not drawn) | 22.4 |  |
| NC(=Nc1c([N+](=O)[O-])cnc2ccccc12)N1CCOCC1 | > 100 |  |
| Cc1cc(CC(O)c2ccc(Cl)c(Cl)c2)nc(=O)[nH]1 (stereo not drawn) | > 100 |  |
| COC(=O)C(=Cc1cc(OC)ccc1OC)C(=O)OC | 35.1 |  |
| CC1=NNC(=O)C2CCC(=O)N12 (stereo not drawn) | > 100 |  |
| CC(C)c1ccccc1NC(=O)CCc1n[nH]c(=S)o1 | > 100 |  |
| CCCCC(C(=O)C(=O)NC1C2CC3CC(C2)CC1C3)C(=O)C(C)C (stereo not drawn) | > 100 |  |
| COC(=O)c1cc2c(s1)C(=O)c1ccccc1-2 | > 100 |  |
| Cn1c2c(c3ccccc31)C1CCCCCCC1C1C(=O)OC(=O)C21 (stereo not drawn) | > 100 |  |
| Cc1ccc(S(=O)(=O)N(CC(=O)O)c2ccccc2)cc1 | > 100 |  |
| COc1ccc(C(=O)C(c2ccc(OC)cc2)C2(O)C(=O)Nc3ccc([N+](=O)[O-])cc32)cc1 (stereo not drawn) | > 100 |  |
| O=C(/C=C/c1ccccc1O)c1ccccc1O | > 100 |  |
| N#CC(N)(C(=O)CCC(=O)Nc1cccc(Cl)c1)c1ccc(Cl)cc1 (stereo not drawn) | > 100 |  |
| S=C(Nc1ccccc1)N(/N=C/C=C/c1ccccc1)c1nnc(-c2ccccc2)c(-c2ccccc2)n1 | > 100 |  |
| CN1CCN(CCOc2ccc(-c3cnc4c(-c5ccccc5F)cnn4c3)cc2)CC1 | 2.96 | 1.61 |
| CN(C)N=Nc1ccc(NC=O)cc1 | > 100 |  |

tested on: BT-549 breast; test: growth of human tumour cells (NCI), 48 h

| Compound | TGI [µM] | GI50 [µM] |
| --- | --- | --- |
| O=C(O)C1C2C=CC(O2)C1C(=O)NCc1ccccn1 (stereo not drawn) | > 100 |  |
| O=C(OC(CNc1cc(=O)n(Cc2ccccc2)c(=O)n1Cc1ccccc1)CN1CCCC1)c1ccccc1 (stereo not drawn) | > 100 | 0.781 |
| CCN(CC)CCOc1ccc(-c2nc3cc(Cl)ccc3s2)cc1 | 5.73 | 1.83 |
| CCN1CCN(C(c2ccc(C(F)(F)F)cc2)c2ccc3cccnc3c2O)CC1 (stereo not drawn) | 11.6 | 1.4 |
| NC(=Nc1c([N+](=O)[O-])cnc2ccccc12)N1CCOCC1 | > 100 |  |
| CN1CCN(CCOc2ccc(-c3cnc4c(-c5ccccc5F)cnn4c3)cc2)CC1 | 3.77 | 1.9 |
| CN(C)N=Nc1ccc(NC=O)cc1 | > 100 |  |

tested on: HCC-2998 colon; test: growth of human tumour cells (NCI), 48 h

| Compound | TGI [µM] | GI50 [µM] |
| --- | --- | --- |
| CC(C)N(C(=O)C12C3C4C5(C#N)C3C1(C#N)C5C42I)C(C)C (stereo not drawn) | > 100 |  |
| COc1ccc2c3c([nH]c2c1[N+](=O)[O-])C(C)=NCC3 | > 100 |  |
| CC(C)(C)CC(C)(C)c1cc2c(O)c(c1)Cc1cc(C(C)(C)CC(C)(C)C)cc(c1O)Cc1cc(C(C)(C)CC(C)(C)C)cc(c1O)Cc1cc(C(C)(C)CC(C)(C)C)cc(c1O)C2 | > 100 |  |
| Cc1cc([N+](=O)[O-])ccc1Nc1cccc(Cl)c1C | 32.6 |  |
| CC1=C(C(=O)Nc2ccccc2)C(c2ccccc2)C(C(=O)Nc2ccccc2)=C(C)N1 | > 100 |  |
| O=C(OC(CNc1cc(=O)n(Cc2ccccc2)c(=O)n1Cc1ccccc1)CN1CCCC1)c1ccccc1 (stereo not drawn) | > 100 | > 100 |
| Cc1nn(-c2ccccc2)c2nc(N3CCOCC3)nnc12 | > 100 |  |
| CCOC(=O)CCCn1c(SC)nc2[nH]cc(-c3ccccc3)c2c1=O | > 100 | > 100 |
| CNC(=O)N(C)N=NCCCl | > 100 |  |
| CCOc1ccccc1C=C1c2ccccc2C(=O)c2ccccc21 | 21.9 |  |
| O=C(CCn1[nH]c(=O)c(Cl)c(Cl)c1=O)NO | > 100 |  |
| CCN1CCN(C(c2ccc(C(F)(F)F)cc2)c2ccc3cccnc3c2O)CC1 (stereo not drawn) | 12.2 | 0.88 |
| [N-]=[N+]=NC12CC3C4CC5CC3C(C1)C(C5)C4C2 | > 100 |  |
| CN(C)c1nc2ccccc2[nH]1 | > 100 |  |
| NNC(=S)N/N=C(\CC1OC(=O)c2ccccc21)c1ccccc1O (stereo not drawn) | > 100 |  |
| COC(=O)C1=C(O)c2cc(OC)c(OC)cc2C(c2ccc(OC)c(OC)c2)C1 (stereo not drawn) | > 100 |  |
| COC1(OC)CC2C(=O)N(Cc3ccccc3)C1C(S(=O)(=O)c1ccccc1)C2S(=O)(=O)c1ccccc1 (stereo not drawn) | 31.1 |  |
| COC(=O)C(=Cc1cc(OC)ccc1OC)C(=O)OC | 34 |  |
| CC1=NNC(=O)C2CCC(=O)N12 (stereo not drawn) | > 100 |  |
| CC(C)c1ccccc1NC(=O)CCc1n[nH]c(=S)o1 | > 100 |  |
| CCCCC(C(=O)C(=O)NC1C2CC3CC(C2)CC1C3)C(=O)C(C)C (stereo not drawn) | > 100 |  |
| COC(=O)c1cc2c(s1)C(=O)c1ccccc1-2 | > 100 |  |
| Cn1c2c(c3ccccc31)C1CCCCCCC1C1C(=O)OC(=O)C21 (stereo not drawn) | 70.3 |  |
